From article PMC9848300, “Discovery of novel enasidenib analogues targeting inhibition of mutant isocitrate dehydrogenase 2 as antileukaemic agents” (Journal of Enzyme Inhibition and Medicinal Chemistry, 2023)

Experiments:
SN 12C = test: NCI 60 antitumor screening (single dose / five doses); format: cell-based; conditions: Homo sapiens, SN12C; SN 12C (renal cancer), single dose 10 μM; read-out: Growth inhibition percentage (GI %)
HOP-92 = test: as above; format: cell-based; conditions: Homo sapiens; HOP-92 (non-small cell lung cancer), single dose 10 μM; read-out: Growth inhibition percentage (GI %)
CCRF-CEM = test: as above; format: cell-based; conditions: Homo sapiens; CCRF-CEM (leukaemia), single dose 10 μM; read-out: Growth inhibition percentage (GI %)
NCI/ADR-RES = test: as above; format: cell-based; conditions: Homo sapiens; NCI/ADR-RES (ovarian cancer), single dose 10 μM; read-out: Growth inhibition percentage (GI %)
COLO 205 = test: as above; format: cell-based; conditions: Homo sapiens; COLO 205 (colon cancer), single dose 10 μM; read-out: Growth inhibition percentage (GI %)
MDA-MB-468 = test: as above; format: cell-based; conditions: Homo sapiens; MDA-MB-468 (breast cancer), single dose 10 μM; read-out: Growth inhibition percentage (GI %)
SNB-75 = test: as above; format: cell-based; conditions: Homo sapiens; SNB-75 (CNS cancer), single dose 10 μM; read-out: Growth inhibition percentage (GI %)
MALME-3M = test: as above; format: cell-based; conditions: Homo sapiens; MALME-3M (melanoma), single dose 10 μM; read-out: Growth inhibition percentage (GI %)
A498 = test: as above; format: cell-based; conditions: Homo sapiens; A498 (renal cancer), single dose 10 μM; read-out: Growth inhibition percentage (GI %)
HS 578T = test: NCI 60 antitumor screening (single dose); format: cell-based; conditions: Homo sapiens; HS 578T (breast cancer), single dose 10 μM; read-out: Growth inhibition percentage (GI %)
Outline: (§1)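 Percent growth inhibition, calculated as 100 minus percent growth (G%) of treated cells, following a single 10 μM exposure in the NCI 60 human cancer cell screen; triplicate runs.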

SK-OV-3 = test: NCI 60 antitumor screening (single dose); format: cell-based; conditions: Homo sapiens; SK-OV-3 (ovarian cancer), single dose 10 μM; read-out: Growth inhibition percentage (GI %)
Outline: (§2)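 Test compound added at 10 μM to each of 60 human cancer lines from nine tumour types; growth measured per NCI protocol in triplicate; percent growth converted to inhibition (100 − G%).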

NCI-H460 = test: NCI 60 antitumor screening (single dose); format: cell-based; conditions: Homo sapiens; NCI-H460 (non-small cell lung cancer), single dose 10 μM; read-out: Growth inhibition percentage (GI %)
Outline: as §2

PC-3 = test: NCI 60 antitumor screening (single dose); format: cell-based; conditions: Homo sapiens; PC-3 (prostate cancer), single dose 10 μM; read-out: Growth inhibition percentage (GI %)
Outline: as §1

DU-145 = test: NCI 60 antitumor screening (single dose / five doses); format: cell-based; conditions: Homo sapiens; DU-145 (prostate cancer), single dose 10 μM; read-out: Growth inhibition percentage (GI %)
RXF 393 = test: as above; format: cell-based; conditions: Homo sapiens; RXF 393 (renal cancer), single dose 10 μM; read-out: Growth inhibition percentage (GI %)
SW-620 = test: as above; format: cell-based, human; conditions: Homo sapiens; SW-620 (colon cancer), single dose 10 μM; read-out: Growth inhibition percentage (GI %)
HT29 = test: as above; format: cell-based, human; conditions: Homo sapiens, HT-29; HT29 (colon cancer), single dose 10 μM; read-out: Growth inhibition percentage (GI %)
MDA-MB-231/ATCC = test: as above; format: cell-based; conditions: Homo sapiens; MDA-MB-231/ATCC (breast cancer), single dose 10 μM; read-out: Growth inhibition percentage (GI %)
UACC-257 = test: as above; format: cell-based; conditions: Homo sapiens; UACC-257 (melanoma), single dose 10 μM; read-out: Growth inhibition percentage (GI %)
SR = test: as above; format: cell-based; conditions: Homo sapiens; SR (leukaemia), single dose 10 μM; read-out: Growth inhibition percentage (GI %)
SK-MEL-28 = test: as above; format: cell-based; conditions: Homo sapiens; SK-MEL-28 (melanoma), single dose 10 μM; read-out: Growth inhibition percentage (GI %)
SK-MEL-5 = test: as above; format: cell-based; conditions: Homo sapiens; SK-MEL-5 (melanoma), single dose 10 μM; read-out: Growth inhibition percentage (GI %)
ACHN = test: as above; format: cell-based; conditions: Homo sapiens; ACHN (renal cancer), single dose 10 μM; read-out: Growth inhibition percentage (GI %)
MDA-MB-435 = test: as above; format: cell-based; conditions: Homo sapiens; MDA-MB-435 (melanoma), single dose 10 μM; read-out: Growth inhibition percentage (GI %)
EKVX = test: as above; format: cell-based; conditions: Homo sapiens; EKVX (non-small cell lung cancer), single dose 10 μM; read-out: Growth inhibition percentage (GI %)
IGROV1 = test: as above; format: cell-based; conditions: Homo sapiens, IGROV-1; IGROV1 (ovarian cancer), single dose 10 μM; read-out: Growth inhibition percentage (GI %)
SF-539 = test: as above; format: cell-based; conditions: Homo sapiens; SF-539 (CNS cancer), single dose 10 μM; read-out: Growth inhibition percentage (GI %)
UACC-62 = test: as above; format: cell-based; conditions: Homo sapiens; UACC-62 (melanoma), single dose 10 μM; read-out: Growth inhibition percentage (GI %)

Structure (SMILES)	inhibition at 10 µM (SN 12C) [%]	inhibition at 10 µM (HOP-92) [%]	inhibition at 10 µM (CCRF-CEM) [%]	inhibition at 10 µM (NCI/ADR-RES) [%]	inhibition at 10 µM (COLO 205) [%]	inhibition at 10 µM (MDA-MB-468) [%]	inhibition at 10 µM (SNB-75) [%]	inhibition at 10 µM (MALME-3M) [%]	inhibition at 10 µM (A498) [%]	inhibition at 10 µM (HS 578T) [%]	inhibition at 10 µM (SK-OV-3) [%]	inhibition at 10 µM (NCI-H460) [%]	inhibition at 10 µM (PC-3) [%]	inhibition at 10 µM (DU-145) [%]	inhibition at 10 µM (RXF 393) [%]	inhibition at 10 µM (SW-620) [%]	inhibition at 10 µM (HT29) [%]	inhibition at 10 µM (MDA-MB-231/ATCC) [%]	inhibition at 10 µM (UACC-257) [%]	inhibition at 10 µM (SR) [%]	further results
Oc1ccc(/C=N/Nc2nc(N/N=C/c3ccc(O)c(O)c3)nc(N3CCCCC3)n2)cc1O [compound 7j, 4-[(1e)-(2-{4-[(E)-2-[(3,4-Dihydroxyphenyl)methylidene]hydrazin-1-yl]-6-(piperidin-1-yl)-1,3,5-triazin-2-yl}hydrazin-1-ylidene)methyl]benzene-1,2-diol]	4.32	-9.47	9.46	-3.16	-6.39	10.2	-4	6.88	-2.84	-6.08	-24.8	0.77	9.42	0.25	-17.8	6.35	-13.4	12.8	-8.89	25.9	inhibition at 10 µM (SK-MEL-28): -7.04%; inhibition at 10 µM (SK-MEL-5): 4.85%; inhibition at 10 µM (ACHN): 6.6%; inhibition at 10 µM (MDA-MB-435): -1.68%; inhibition at 10 µM (EKVX): 1.58%; inhibition at 10 µM (IGROV1): 5.35%; inhibition at 10 µM (SF-539): 1.16%; inhibition at 10 µM (UACC-62): 3.56%
C(=N\Nc1nc(N/N=C/c2ccc3c(c2)OCO3)nc(N2CCCCC2)n1)/c1ccc2c(c1)OCO2 [compound 7k, 2,4-Bis[(E)-2-(2H-1,3-Benzodioxol-5-ylmethylidene)hydrazin-1-yl]-6-(piperidin-1-yl)-1,3,5-triazine]	20.3	4.01	79.6	14.5	14.1	18.4	-13.1	-20.2	48.3	-4.09	-39.5	9.41	26.4	0.19	20.3	17.6	61.8	9.3	-7.99	99.9	inhibition at 10 µM (SK-MEL-28): -8.67%; inhibition at 10 µM (SK-MEL-5): 3.15%; inhibition at 10 µM (ACHN): 5.09%; inhibition at 10 µM (MDA-MB-435): 1.52%; inhibition at 10 µM (EKVX): 6.27%; inhibition at 10 µM (IGROV1): 23.1%; inhibition at 10 µM (SF-539): 12.4%; inhibition at 10 µM (UACC-62): -2.37%
